Source: patent US20070161643A1, “Pyridin-2-one compounds useful as inhibitors of thrombin” (priority 2004, published 2007)

Molecular target: T1, Human α-thrombin (Homo sapiens, UniProt P00734)
T1 construct: 12 μL of α-thrombin solution (Human α-thrombin, Sigma Chemical Co. or Hematologic Technologies); purchased Sigma Chemical Co. or Hematologic Technologies
Experiment: Test B: Determination of thrombin inhibition with a chromogenic, robotic assay
Type: biochemical
Description: The thrombin inhibitor potency is measured with a chromogenic substrate method, in a Plato 3300 robotic microplate processor (Rosys AG, CH-8634 Hombrechtikon, Switzerland), using 96-well, half volume microtitre plates (Costar, Cambridge, Mass., USA; Cat No 3690). Stock solutions of test substance in DMSO (72 μL), 0.1-1 mmol/L, are diluted serially 1:3 (24+48 μL) with DMSO to obtain ten different concentrations, which are analysed as samples in the assay. 2 μL of test sample is diluted with 124 μL assay buffer, 12 μL of chromogenic substrate solution (S-2366, Chromogenix, Mölndal, Sweden) in assay buffer and finally 12 μL of α-thrombin solution (Human α-thrombin, Sigma Chemical Co. or Hematologic Technologies) in assay buffer, are added, and the samples mixed. The final assay concentrations are: test substance 0.00068-133 μmol/L, S-2366 0.30 mmol/L, α-thrombin 0.020 NIHU/mL. The linear absorbance increment during 40 minutes incubation at 37° C. is used for calculation of percentage inhibition for the test samples, as compared to blanks without inhibitor.

Cc1ccc(C)c(CCNn2ccc(C)c(CC(=O)NCc3ccc(C(=N)N)cc3)c2=O)c1 [2(xi), N-(4-Carbamimidoylbenzyl)-2-{1-[2-(2,5-dimethylphenyl)ethylamino]-4-methyl-2-oxo-1,2-dihydropyridin-3-yl}acetamide]
IC50: 92.2 nM
